Four compounds from patent US20050038259A1, “Hydroxyeicosenoic acid anaglogs” (priority 2001, published 2005) can be followed below.

The structures appear in SMILES notation.

Test [1] relates to Rat transient MCA occlusion (t-MCAo) model. The experiment in a line: Infarct volume in rat transient MCA occlusion (t-MCAo) model. The test is classed as in vivo. As to conditions: intravenous 1 hour infusion immediately after reperfusion. Here is the method:
FIG. 1 represents an effect of the compound 50 on infarct volume in rat t-MCAo model. The infarct volumes of total (closed bar), cortex (solid bar) and sub-cortex (open bar) were determined 71 hrs after reperfusion. Data are presented as mean ±SEM. *p<0.05 vs vehicle-treated group (Dunnett's test).
Adult male Wistar rats (200-250 g) were anesthetized with 2% halothane in air. The right internal carotid artery (ICA) was carefully dissected. A silicon-coated suture (18 mm-long) was inserted to the ICA. Body temperature was maintained at 37° C. with a heating pad. […] After 1 hour of MCA occlusion, the thread was removed to allow reperfusion of the ischemic area. Rats were received intravenously 1 hour-infusion of vehicle (10% of HP-β-CD) or the compound 50 dissolved in vehicle immediately after reperfusion.
To measure infarct volume, rats were killed at 71 hours of reperfusion. Brains were perfused transcardially with physiological saline, and removed from skulls, cut into 2-mm coronal sections. The slices were immersed in 2% triphenyltetrazolium chloride (TTC) solution at 37° C. for 30 minutes.
All values were presented as mean ±SEM. For statistical analyses, Dunnett's multiple-range test was used.

In the next test the test system is Rat neutrophils. Nature of the test: Test for elastase production by fMLP stimulation (elastase release inhibition). The test is classed as cell-based. To be noted: Neutrophil; elastase release from cytochalasin B-primed rat neutrophils stimulated with fMLP (1 μM); elastase activity in supernatant. The method, then: Rat neutrophils preparation was obtained 15-18 hrs after intraperitoneal injection of a 1% sterile casein solution in saline (120 mL/kg). Cells were harvested by peritoneal lavage after the decapitation. The lavage fluid was ice-cold PBS (Phosphate-Buffered Saline). Peritoneal exudates were pooled, centrifuged and suspended in HBSS (Hanks' Balanced Salt Solution) at 1×10^7 cells/mil. Cytochalasin B (final concentration: 5 μg/ml) were added to prime the cells. The cells were added into a 96-well culture plate (190 μL/well) and then the compounds of the present invention at various concentrations (10^−7 to 3×10^−5 M) were added and incubated at 37° C. in an atmosphere of 5% CO2 in air. After 10 minutes, fMLP (20 μM, 10 μL) was added, while 10 μL of an HBSS solution containing 0.4% ethanol was added to the group to which no fMLP was added. After gently stirring, cells were incubated for further 10 minutes. The reaction was stopped on ice, and an incubated supernatant was recovered by centrifugation.
Elastase activity in the incubated supernatant was measured using a specific elastase substrate, N-succinyl-L-alanyl-L-alanyl-L-proline-valine-MCA (Peptide Institute, Inc., Osaka), 0.12 mM in 50 mM Tris-HCl (pH 8.0). Fifty microliter of an incubated supernatant was added to the substrate solution (50 μL) and incubated at 37° C. for 30 minutes. Elastase activity was assayed at a wavelength of 360 nm at excitation and 480 nm at emission.
Elastase release-inhibiting activity (inhibition ratio) was calculated according to the following equation: Inhibition ratio (%)={1−(A−C)/(B−C)}×100 wherein A stands for a fluorescence intensity when […]; and C stands for a fluorescence intensity when fMLP (1 μM) was not added.
Inhibitory concentration of 50% (IC50 value) of the compound of the invention was calculated with a concentration-inhibition ratio curve.

By IC50 is commonly meant the concentration that gives 50% inhibition. In the case of `CCCC[C@@H](O)/C=C\CCCCCCCCCCCCC(=O)O` [Compound 50, (R)-(Z)-16-Hydroxyeicos-14-enoic acid], in test [1] (0.01 mg/kg/min, 71 hours of reperfusion, significant), the “reduction of total infarct volume as compared with vehicle-treated group” value is recorded as 35.3%. Further, in test [1] (from 0.001 mg/kg/min, doses 0.001, 0.01, 0.1 mg/kg/min), the “effect on infarct volume” value is “reduced the infarct volume”. In the test on Rat neutrophils, this compound came in with a 50% inhibitory concentration (IC50) of 8.29 µM.

In the test on Rat neutrophils, `CCCC[C@@H](O)C#CCCCCCCCCCCCCCC(=O)O` [Compound 4, (R)-17-Hydroxyheneicos-15-ynoic acid] displayed an IC50 of 10.3 µM.

For the compound `CCCC[C@@H](O)/C=C\CCCCCCCCCCCC(=O)O` [Compound 65, (R)-(Z)-15-Hydroxynonadec-13-enoic acid], the half-inhibitory concentration (IC50) in the test on Rat neutrophils is 17.5 µM.

The compound `CCCC[C@@H](O)C#CCCCCCCCCCCCCC(=O)O` [Compound 12, (R)-16-Hydroxyeicos-14-ynoic acid] returned a half-inhibitory concentration (IC50) in the test on Rat neutrophils of 9.18 µM.
